The record followed here is paper PMC8200971, “Design, Synthesis, Biological Evaluation and Silico Prediction of Novel Sinomenine Derivatives” (Molecules, 2021).

The subject of data set [1] is HepG2 (human hepatocellular carcinoma cell lines). In words: MTT assay, growth inhibition. The data set is classed as cell-based. The following applies: HepG2, 20 μM, 24 h. As to the method:
(§1) The in vitro growth inhibitory activity of the sinomenine derivatives (5a–5k) was evaluated against different three cell lines, MCF-7, Hela, and HepG2, using sinomenine as the reference compound kept under the same conditions in an MTT assay. The inhibition ratios of synthetic compounds were determined at concentrations of 2, 20 and 200 μM.
(§2) The MCF-7 (human breast cancer cell lines), Hela (human cervical cancer cells lines), and HepG2 (human hepatocellular carcinoma cell lines) cells were used to measure the cytotoxicity of the 5a–5k series, which were provided by the Academy of Military Medical Sciences (Beijing, China). The cell lines were maintained on RPMI 1640 nutrient medium supplemented with 10% heat-inactivated fetal bovine serum, 1% L-glutamine, […] and 100 units/mL penicillin. The cells were grown at 37 °C in a humidified atmosphere with 5% CO2 and were subcultured two to three times a week.
(§3) The MTT (3-(4, 5-dimethyl thiazol-2-yl)-2, 5-diphenyl tetrazolium bromide) assay with a slight modification was used to determine the inhibition effects of substrates 5a–5k. MCF-7, Hela and HepG2 were used for testing. Briefly, cells (5.0 × 10^3 cells per well) were seeded in 100 μL of the RPMI-1640 medium in 96-well plates for 24 h, treated with drugs and complete medium in wells up to 200 μL for 24 h. RPMI-1640 samples were employed as negative controls, and cisplatin as a positive control. Four quadruplicates of each concentration for all tested compounds were evaluated in three independent assays. For this, after removing the drug containing media 100 μL, 10 μL of MTT solution was added to wells and incubated for 4 h under similar conditions. After that, the supernatant from each well was removed and the formazan crystals formed by viable cells were dissolved with DMSO (100 μL/well). At the end of incubation, optical densities at 570 nm were measured using a plate reader (BIO-TEK, USA). Cell viability was calculated based on the measured absorbance relative to the absorbance of the cells exposed to the negative control, which represented 100% cell viability.

Data set [2] relates to Hela (human cervical cancer cells lines). The data set is described as follows: MTT assay, growth inhibition. The following applies: 20 μM, 24 h. It counts as cell-based. As for the experimental part:
as §1, §2, §3
(Formazan colour is commonly taken as a measure of viable cells.)

Data set [3] has as its system MCF-7 (human breast cancer cell lines). The data set is described as follows: MTT assay, growth inhibition. It counts as cell-based. The conditions noted are these: MCF-7, 20 μM, 24 h. As for the experimental part:
as §1, §2, §3

Data set [4] concerns A549 (human lung adenocarcinoma cell lines). In words: CCK8 cytotoxicity assay. It counts as cell-based. The conditions noted are these: Homo sapiens, A549, 60 h, read-out: growth inhibition ratio (mean ± SD). As for the experimental part:
(§4) Cytotoxicity screens were performed to assess the in vitro anticancer activity of the synthesized sinomenine derivatives 6a–6l on the various cancer cell lines MCF-7, Hela, SW480, and A549, as well as on Hek293 as a normal cell line, at doses of 2.5 and 25 μM. The obtained inhibition ratios data were used to construct a heat map (Figure 3, Tables S1 and S2) in order to select compounds that exert cancer cell line-specific cytotoxicity. Then, the IC50 values of the promising compound were determined. Cisplatin was used as a reference standard. The antiproliferative activity was based on the evaluation of the percent viability using the CCK8 assay, which is a rapid and sensitive method for determining the number of viable cells in culture. In the presence of electronic coupling reagents, WST-8 can be reduced by a dehydrogenase in the mitochondria to produce a highly water-soluble orange-yellow formazan product. Its color is proportional to the proliferation of the number of viable cells and is related to cytotoxicity. Using a microplate reader to measure the OD value can indirectly reflect the number of living cells at 450 nm wavelength.
(§5) To understand structure–function relationships, these selected compounds were subjected to subsequent analyses. All six compounds (6a and 6c–6g) were further examined to determine their IC50 concentrations on the previously mentioned cell lines, and their efficacy was compared to the reference drug cisplatin. For this, six compounds and cisplatin were evaluated on Hela, MCF-7, SW480, and A549, and on noncancerous Hek293 cell lines at various concentrations for 60 h. IC50 values were calculated (Table 2).
(§6) The MCF-7 (human breast cancer cell lines), Hela (human cervical cancer cell lines), SW480 (human colon adenocarcinoma cell lines), A549 (human lung adenocarcinoma cell lines) and nontoxic normal cells Hek293 (human embryonic kidney cell lines) cells were used to measure the cytotoxicity of the 6a–6l. They were obtained from the Beijing Normal University (Beijing, China). The test cell lines were cultured in DMEM, IMDM, F12 and DMEM nutrient medium containing 10% heat-inactivated fetal bovine serum, […] and 100 units/mL penicillin in a humified, 5% (v/v) CO2 atmosphere at 37 °C.
(§7) Cell viability was estimated using the CCK8 assay. Tumor cells ([…]) viz. MCF-7, Hela, SW480, A549 and nontoxic normal cells Hek293 were seeded in medium containing Corning® 96-well tissue culture plates at confluences of […], respectively, in Incucyte ZOOM. Fresh medium (100 μL) containing different concentrations of the test sample was added after 12 h of seeding. The microtiter plates were incubated at 37 °C in a humidified incubator with 5% CO2 for 60 h. Triplicates from each concentration were used. Negative control cells were incubated without sample and cisplatin as a positive control. At the end of treatment, the numbers of viable cells were determined by the CCK8 test. In brief, the media was removed from the 96 well plates and replaced with 100 μL of fresh culture medium with 10% CCK8 solution added to each well including the untreated controls. The 96 well plates were then incubated at 37 °C and 5% CO2 for 1–4 h. Then, the absorbance was measured at 450 nm using a BMG LABTECH®-POLAR star Omega microplate reader (Ortenberg, Germany) to determine the number of viable cells, and the percentage of viability was calculated as ((ODt- ODb/ODc- ODb)) × 100%, where ODt is the mean optical density of wells treated with the tested sample, ODc is the mean optical density of wells treated with DMSO and ODb is the mean optical density of PBS wells without cells. The relation between surviving cells and drug concentrations were plotted to get the survival curve of each tumor cell line after treatment with the specified compound. […]

Data set [5] deals with Hela (human cervical cancer cell lines). The data set is described as follows: CCK8 cytotoxicity assay. It counts as cell-based. The following applies: Homo sapiens, HeLa, 60 h, read-out: growth inhibition ratio (mean ± SD). As for the experimental part:
as §4, §5, §6, §7

Data set [6] has as its system MCF-7 (human breast cancer cell lines). The data set is described as follows: CCK8 cytotoxicity assay. The conditions noted are these: Homo sapiens, MCF7, 60 h, read-out: growth inhibition ratio (mean ± SD). It counts as cell-based. As for the experimental part:
as §4, §5, §6, §7

Data set [7] deals with SW480 (human colon adenocarcinoma cell lines). The data set is described as follows: CCK8 cytotoxicity assay. The following applies: Homo sapiens, SW480, 60 h, read-out: growth inhibition ratio (mean ± SD). It counts as cell-based. As to the method: as §4, §5, §6, §7
Data set [8] has as its system Hek293 (human embryonic kidney cell lines). In words: CCK8 cytotoxicity assay, normal cells. The data set is classed as cell-based. The conditions noted are these: Homo sapiens, HEK293, 60 h, read-out: growth inhibition ratio (mean ± SD). As for the experimental part:
as §4, §5, §6, §7

Regarding `COC1=C[C@@H]2[C@@H]3Cc4c(CN5CCCCC5)cc(OC)c(OC(=O)Cc5cccc(Cl)c5)c4[C@]2(CCN3C)CC1=O` [5g, (4bR,8aS,9S)-3,7-dimethoxy-11-methyl-6-oxo-1-(piperidin-1-ylmethyl)-6,8a,9,10-tetrahydro-5H-9,4b-(epiminoethano)phenanthren-4-yl 2-(3-chlorophenyl)acetate], the melting point – broadly, the temperature, or range, at which the solid turns liquid – lay within 164 to 167 °C. The inhibition ratio result in data set [1] is reported as “more than 53.2%”.

Compound `COC1=C[C@@H]2[C@@H]3Cc4c(CN5CCCCC5)cc(OC)c(OC(=O)Cc5ccc(Cl)cc5Cl)c4[C@]2(CCN3C)CC1=O` [5i, (4bR,8aS,9S)-3,7-dimethoxy-11-methyl-6-oxo-1-(piperidin-1-ylmethyl)-6,8a,9,10-tetrahydro-5H-9,4b-(epiminoethano)phenanthren-4-yl 2-(2,4-dichlorophenyl)acetate] registered a melting point of 135 to 137 °C. Moreover, the inhibition ratio in data set [2] is given as 94.43%. Also, the inhibition ratio in data set [1] came out at 90.69%. The inhibition ratio in data set [3] stood at 54.13%.

`COC1=C[C@@H]2[C@@H]3Cc4c(CN5CCCCC5)cc(OC)c(OC(=O)Cc5ccc(Cl)c(Cl)c5)c4[C@]2(CCN3C)CC1=O` [5j, (4bR,8aS,9S)-3,7-dimethoxy-11-methyl-6-oxo-1-(piperidin-1-ylmethyl)-6,8a,9,10-tetrahydro-5H-9,4b-(epiminoethano)phenanthren-4-yl 2-(3,4-dichlorophenyl)acetate]: the melting point was 143 to 146 °C. Also, in [2], the inhibition ratio stood at 80.22%. In data set [1], the inhibition ratio worked out at 89.57%. The inhibition ratio in data set [3] is on record as 63.35%.

Consider `COC1=C[C@@H]2[C@@H]3Cc4c(CN5CCCC5)cc(OC)c(OC(=O)Cc5ccccc5OC)c4[C@]2(CCN3C)CC1=O` [6k, (4bR,8aS,9S)-3,7-dimethoxy-11-methyl-6-oxo-1-(pyrrolidin-1-ylmethyl)-6,8a,9,10-tetrahydro-5H-9,4b-(epiminoethano)phenanthren-4-yl 2-(2-methoxyphenyl)acetate], for which the melting point fell in the range of 180 to 182 °C. Moreover, in data set [4], the inhibition at 2.5 µM stood at 16.6 ± 2.3% and the inhibition at 25 µM was determined as 51.9 ± 6.36%. In data set [5], the inhibition at 2.5 µM was 0% and the inhibition at 25 µM came to 44.1 ± 0.92%. Moreover, in data set [6], the inhibition at 2.5 µM stood at 0.75 ± 1.29% and the inhibition at 25 µM is 24.4 ± 11%. In [7], the inhibition at 2.5 µM was 3.72 ± 1.8% and the inhibition at 25 µM is 36.9 ± 0.52%. In [8], the inhibition at 2.5 µM is 13.9 ± 4.06% and the inhibition at 25 µM was 63.5 ± 10.2%.

Consider `COC1=C[C@@H]2[C@@H]3Cc4c(CN5CCCC5)cc(OC)c(OC(=O)Cc5ccccc5F)c4[C@]2(CCN3C)CC1=O` [6l, (4bR,8aS,9S)-3,7-dimethoxy-11-methyl-6-oxo-1-(pyrrolidin-1-ylmethyl)-6,8a,9,10-tetrahydro-5H-9,4b-(epiminoethano)phenanthren-4-yl 2-(2-fluorophenyl)acetate], for which the melting point lay in the range of 178 to 180 °C. In addition, in [4], the inhibition at 2.5 µM came to 13.2 ± 4.88% and the inhibition at 25 µM turned out to be 47.1 ± 5.4%. Moreover, in data set [5], the inhibition at 2.5 µM amounted to 0.61 ± 0.6% and the inhibition at 25 µM amounted to 29 ± 1.88%. In data set [6], the inhibition at 2.5 µM worked out at 4.61 ± 4.79% and the inhibition at 25 µM amounted to 9.52 ± 8.26%. For the same compound, in data set [7], the inhibition at 2.5 µM was determined as 3.91 ± 0.85% and the inhibition at 25 µM was found to be 16.5 ± 0.53%. Moreover, in [8], the inhibition at 2.5 µM is 12.7 ± 2.89% and the inhibition at 25 µM turned out to be 68.8 ± 13.3%.
